Test results taken from ChEMBL document CHEMBL1955803, “Preclinical in vivo evaluation of efficacy, pharmacokinetics, and pharmacodynamics of a novel MEK1/2 kinase inhibitor RO5068760 in multiple tumor models” (Mol Cancer Ther, 2010).
The source made the active and inactive calls. No cut-off for these calls is given here.

Assays:
[1] = AUC (0 to 12 hrs) in human H460 cells expressing K-Ras Q61H mutant xenografted nude mouse at 50 mg/kg, po bid; assay type: ADME, organism-based; design: time < 12 hr, dose 50 mg/kg, route oral; details: in vivo
NCI-H460 [2] = assay: Antitumor activity against human H460 cells expressing K-Ras Q61H mutant xenografted in nude mouse assessed as tumor growth inhibition at 500 mg/kg, po administered weekly once; assay type: functional; details: read-out: GI
[3] = AUC (0 to 12 hrs) in human HT-29 cells expressing B-Raf V600E mutant xenografted nude mouse at 100 mg/kg, po bid; assay type: ADME, organism-based; design: time < 12 hr, dose 100 mg/kg, route oral; details: in vivo
[4] = Cmax in human HT-29 cells expressing B-Raf V600E mutant xenografted nude mouse at 100 mg/kg, po bid; assay type: ADME, organism-based; design: dose 100 mg/kg, route oral; details: in vivo
Mus musculus [5] = assay: Average drug concentration in human MIAPaCa2 cells expressing K-Ras G12C mutant xenografted nude mouse plasma at 25 mg/kg, po bid; assay type: ADME, organism-based, MIA PaCa-2; design: dose 25 mg/kg, route oral; details: in vivo
Mus musculus [6] = assay: Average drug concentration in human H460 cells expressing K-Ras Q61H mutant xenografted nude mouse plasma at 100 mg/kg, po bid; assay type: ADME, organism-based; design: dose 100 mg/kg, route oral; details: in vivo
Mus musculus [7] = assay: Average drug concentration in human MIAPaCa2 cells expressing K-Ras G12C mutant xenografted nude mouse plasma at 200 mg/kg, po qd; assay type: ADME, organism-based, MIA PaCa-2; design: dose 200 mg/kg, route oral; details: in vivo
NCI-H460 [8] = assay: Growth inhibition of human […] mutant by MTT assay; assay type: functional, cell-based
LOX = assay: Induction of apoptosis in human LOX cells; assay type: functional, cell-based
[9] = biological target: T1, Dual specificity mitogen-activated protein kinase kinase; MEK1/2 (Homo sapiens) (UniProt P36507+Q02750); details: HT-29, 2 to 10 uM
Description: Inhibition of MEK1/2 in human HT-29 cells assessed as down regulation of CDK4/cyclin D1 expression at 2 to 10 uM by Western blot analysis

MIA PaCa-2 [10] = assay: Antitumor activity against human MIAPaCa2 cells expressing K-Ras G12C mutant xenografted in nude mouse assessed as tumor growth inhibition at 200 mg/kg, po bid; assay type: functional; details: read-out: GI
NCI-H460 [11] = assay: Antitumor activity against human H460 cells expressing K-Ras Q61H mutant xenografted in nude mouse assessed as tumor growth inhibition at 200 mg/kg, po bid; assay type: functional; details: read-out: GI
[12] = Plasma concentration in human HT-29 cells expressing B-Raf V600E mutant xenografted nude mouse at 50 mg/kg, po after 4 hrs; assay type: ADME, organism-based; design: dose 50 mg/kg, route oral
HT-29 = assay: Antitumor activity against human HT-29 cells expressing B-Raf V600E mutant xenografted in nude mouse assessed as tumor growth inhibition at 50 mg/kg, po bid; assay type: functional; details: read-out: GI
Mus musculus [13] = assay: Inhibition of MEK-mediated ERK phosphorylation in tumor of human HT-29 cells expressing B-Raf V600E mutant xenografted nude mouse at 50 mg/kg, po after 8 hrs by Western blot analysis relative to control; assay type: functional; details: HT-29, 8 h
[14] = Drug level in human HT-29 cells expressing B-Raf V600E mutant xenografted nude mouse tumor at 50 mg/kg, po after 4 hrs; assay type: ADME, organism-based, Neoplasm; design: dose 50 mg/kg, route oral; details: read-out: Drug uptake
Mus musculus [15] = assay: Average drug concentration in human LOX cells expressing B-Raf V600E mutant xenografted nude mouse plasma at 6.25 mg/kg, po bid; assay type: ADME, organism-based; design: dose 6.25 mg/kg, route oral; details: in vivo
Mus musculus [16] = assay: Inhibition of MEK-mediated ERK phosphorylation in tumor of human HT-29 cells expressing B-Raf V600E mutant xenografted nude mouse at 100 mg/kg, po after 2 hrs by Western blot analysis relative to control; assay type: functional; details: HT-29, 2 h
[17] = Antitumor activity against human LOX cells expressing B-Raf V600E mutant xenografted in nude mouse assessed as tumor growth inhibition at 100 mg/kg, po bid; assay type: functional; details: read-out: GI
[18] = Plasma concentration in human HT-29 cells expressing B-Raf V600E mutant xenografted nude mouse at 100 mg/kg, po after 2 hrs; assay type: ADME, organism-based; design: dose 100 mg/kg, route oral
[19] = Antitumor activity against human LOX cells expressing B-Raf V600E mutant xenografted in nude mouse assessed as tumor growth inhibition at 6.25 mg/kg, po bid; assay type: functional; details: read-out: GI
Mus musculus [20] = assay: Average drug concentration in human HT-29 cells expressing B-Raf V600E mutant xenografted nude mouse plasma at 50 mg/kg, po bid; assay type: ADME, organism-based; design: dose 50 mg/kg, route oral; details: in vivo
[21] = Cmax in human H460 cells expressing K-Ras Q61H mutant xenografted nude mouse at 200 mg/kg, po qd; assay type: ADME, organism-based; design: dose 200 mg/kg, route oral; details: in vivo
[22] = biological target: T1, Dual specificity mitogen-activated protein kinase kinase; MEK1/2 (Homo sapiens); details: LOX, 2 to 10 uM
Description: Inhibition of MEK1/2 in human LOX cells assessed as down regulation of CDK4/cyclin D1 expression at 2 to 10 uM by Western blot analysis

[23] = AUC (0 to 12 hrs) in human LOX cells expressing B-Raf V600E mutant xenografted nude mouse at 12.5 mg/kg, po bid; assay type: ADME, organism-based; design: time < 12 hr, dose 12.5 mg/kg, route oral; details: in vivo
NCI-H460 [24] = assay: Antitumor activity against human H460 cells expressing K-Ras Q61H mutant xenografted in nude mouse assessed as tumor growth inhibition at 50 mg/kg, po bid; assay type: functional; details: read-out: GI
[25] = Plasma concentration in human LOX cells expressing B-Raf V600E mutant xenografted nude mouse at 100 mg/kg, po after 12 hrs; assay type: ADME, organism-based; design: dose 100 mg/kg, route oral
Mus musculus [26] = assay: Inhibition of MEK-mediated ERK phosphorylation in tumor of human LOX cells expressing B-Raf V600E mutant xenografted nude mouse at 100 mg/kg, po after 8 hrs by Western blot analysis relative to control; assay type: functional
Mus musculus [27] = assay: Inhibition of MEK-mediated ERK phosphorylation in po dosed human LOX cells expressing B-Raf V600E mutant xenografted nude mouse tumor by Western blot analysis; assay type: functional, organism-based
[28] = Cmax in human H460 cells expressing K-Ras Q61H mutant xenografted nude mouse at 25 mg/kg, po bid; assay type: ADME, organism-based; design: dose 25 mg/kg, route oral; details: in vivo
[29] = AUC (0 to 12 hrs) in human HT-29 cells expressing B-Raf V600E mutant xenografted nude mouse at 25 mg/kg, po bid; assay type: ADME, organism-based; design: time < 12 hr, dose 25 mg/kg, route oral; details: in vivo
Mus musculus [30] = assay: Inhibition of MEK-mediated ERK phosphorylation in tumor of human LOX cells expressing B-Raf V600E mutant xenografted nude mouse at 100 mg/kg, po after 1 hr by Western blot analysis relative to control; assay type: functional
Mus musculus [31] = assay: Average drug concentration in human LOX cells expressing B-Raf V600E mutant xenografted nude mouse plasma at 25 mg/kg, po bid; assay type: ADME, organism-based; design: dose 25 mg/kg, route oral; details: in vivo
[32] = biological target: Dual specificity mitogen-activated protein kinase kinase 1 (Homo sapiens, UniProt Q02750); assay: Inhibition of MEK1 in human H460 cells assessed as inhibition of ERK phosphorylation by Western blot analysis; assay type: cell-based
Mus musculus [33] = assay: Inhibition of MEK-mediated ERK phosphorylation in tumor of human HT-29 cells expressing B-Raf V600E mutant xenografted nude mouse at 100 mg/kg, po after 8 hrs by Western blot analysis relative to control; assay type: functional; details: HT-29, 8 h
[34] = Drug level in human LOX cells expressing B-Raf V600E mutant xenografted nude mouse tumor at 100 mg/kg, po after 4 hrs; assay type: ADME, organism-based, Neoplasm; design: dose 100 mg/kg, route oral; details: read-out: Drug uptake
MIA PaCa-2 [35] = assay: Antitumor activity against human MIAPaCa2 cells expressing K-Ras G12C mutant xenografted in nude mouse assessed as tumor growth inhibition at 100 mg/kg, po bid; assay type: functional; details: read-out: GI
[36] = Drug level in human LOX cells expressing B-Raf V600E mutant xenografted nude mouse tumor at 100 mg/kg, po after 8 hrs; assay type: ADME, organism-based, Neoplasm; design: dose 100 mg/kg, route oral; details: read-out: Drug uptake

T1 sequence (P36507 whole entry, looked up): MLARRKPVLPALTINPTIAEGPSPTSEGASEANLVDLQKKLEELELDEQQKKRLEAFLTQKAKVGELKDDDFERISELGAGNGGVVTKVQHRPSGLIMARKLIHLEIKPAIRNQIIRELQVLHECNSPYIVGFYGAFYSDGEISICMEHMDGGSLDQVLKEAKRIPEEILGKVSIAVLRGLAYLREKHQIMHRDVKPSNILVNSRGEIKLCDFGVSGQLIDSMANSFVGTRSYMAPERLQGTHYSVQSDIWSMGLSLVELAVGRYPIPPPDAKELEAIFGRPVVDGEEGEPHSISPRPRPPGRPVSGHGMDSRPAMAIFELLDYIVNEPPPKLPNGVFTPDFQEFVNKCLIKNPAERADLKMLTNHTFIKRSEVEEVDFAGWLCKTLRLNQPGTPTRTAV
T1 sequence (Q02750 whole entry, looked up): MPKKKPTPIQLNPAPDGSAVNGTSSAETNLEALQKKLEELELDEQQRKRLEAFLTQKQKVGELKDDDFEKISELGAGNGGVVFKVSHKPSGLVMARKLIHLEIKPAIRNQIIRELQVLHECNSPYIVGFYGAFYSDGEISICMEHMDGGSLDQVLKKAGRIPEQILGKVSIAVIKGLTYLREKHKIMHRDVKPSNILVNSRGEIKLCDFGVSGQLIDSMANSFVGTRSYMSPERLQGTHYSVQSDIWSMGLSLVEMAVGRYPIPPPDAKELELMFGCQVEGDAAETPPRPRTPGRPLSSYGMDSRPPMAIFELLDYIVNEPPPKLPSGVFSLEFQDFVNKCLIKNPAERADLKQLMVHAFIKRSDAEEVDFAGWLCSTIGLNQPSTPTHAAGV
Sequence of Dual specificity mitogen-activated protein kinase kinase 1 (Q02750 whole entry): as the sequence (Q02750 whole entry, looked up) above

C[C@@H](c1ccccc1)[C@@H](C(=O)Nc1ccc(I)cc1F)N1C(=O)N[C@H](c2ccc(OC[C@H](O)CO)cc2)C1=O
AUC at 12 h [1]: 23300 ng·h/mL
inhibition in vivo at 500 mg/kg (NCI-H460 [2]): 48%
AUC at 12 h [3]: 18400 ng·h/mL
Cmax [4]: 4070 ng/mL
Cave (Mus musculus [5]): 1058 ng/mL
Cave (Mus musculus [6]): 5242 ng/mL
Cave (Mus musculus [7]): 2758 ng/mL
IC50 (NCI-H460 [8]): 300 nM
IC90 (NCI-H460 [8]): 3080 nM
Activity (LOX): Active
inhibition [9]: Active
inhibition in vivo at 200 mg/kg (MIA PaCa-2 [10]): 97%
inhibition in vivo at 200 mg/kg (NCI-H460 [11]): 80%
concentration at 4 h [12]: 4030 ng/mL
inhibition in vivo at 50 mg/kg (HT-29): 75%
inhibition in vivo at 50 mg/kg (Mus musculus [13]): 12%
concentration at 4 h [14]: 1490 ng/g
Cave (Mus musculus [15]): 331 ng/mL
inhibition in vivo at 100 mg/kg (Mus musculus [16]): 76%
inhibition in vivo at 100 mg/kg [17]: > 100%
concentration at 2 h [18]: 9360 ng/mL
inhibition in vivo at 6.25 mg/kg [19]: 61%
Cave (Mus musculus [20]): 609 ng/mL
Cmax [21]: 20700 ng/mL
inhibition [22]: Active
AUC at 12 h [23]: 4660 ng·h/mL
inhibition in vivo at 50 mg/kg (NCI-H460 [24]): 83%
concentration at 12 h [25]: 72 ng/mL
inhibition in vivo at 100 mg/kg (Mus musculus [26]): 48%
EC50 (Mus musculus [27]): 928 ng/g
Cmax [28]: 2750 ng/mL
AUC at 12 h [29]: 3780 ng·h/mL
inhibition in vivo at 100 mg/kg (Mus musculus [30]): 77%
Cave (Mus musculus [31]): 833 ng/mL
IC50 [32]: 82 nM
inhibition in vivo at 100 mg/kg (Mus musculus [33]): 0%
concentration at 4 h [34]: 2630 ng/g
inhibition in vivo at 100 mg/kg (MIA PaCa-2 [35]): > 100%
concentration at 8 h [36]: 1160 ng/g
